These results are taken from patent US20230013602A1, “NOVEL IMIDAZOPYRAZINE DERIVATIVES” (Hoffmann-La Roche Inc., priority 2018, published 2023).

Structures can show the parent of a compound that is named as a salt. Where two headings read alike, the source gives them in different places.

Assay [1] relates to Acinetobacter baumannii ATCC 17978. The assay can be described thus: Antimicrobial susceptibility testing, 90% growth inhibitory concentration (IC90) determination. The assay is classed as cell-based. The settings on record: Acinetobacter baumannii ATCC17978, Iso-Sensitest broth, OD 600 nm over 16 h. As to the method: (§1) The in vitro antimicrobial activity of the compounds was determined according to the following procedure:
(§2) The assay used a 10-points Iso-Sensitest broth medium to measure quantitatively the in vitro activity of the compounds against Acinetobacter baumannii ATCC 17978 and Acinetobacter baumannii ATCC17961.
(§3) Stock compounds in DMSO were serially twofold diluted (e.g. range from 50 to 0.097 μM final concentration) in 384 wells microtiter plates and inoculated with 49 μl the bacterial suspension in Iso-Sensitest medium to have a final cell concentration of ˜5×10^(5) CFU/ml in a final volume/well of 50 ul/well. Microtiter plates were incubated at 35+2° C.
(§4) Bacterial cell growth was determined with the measurement of optical density at X=600 nm each 20 minutes over a time course of 16 h. Growth inhibition was calculated during the logarithmic growth of the bacterial cells with determination of the concentration inhibiting 50% (IC50) and 90% (IC90) of the growth.
(§5) Table 1 provides the 90% growth inhibitory concentrations (IC90) in micromoles per liter of the compounds of present invention obtained against the strain Acinetobacter baumannii ATCC17978 and Acinetobacter baumannii ATCC17961.

Assay [2] relates to Acinetobacter baumannii ATCC17961. Described as above. The settings on record: read-out: ATCC17961 IC90. The assay is classed as cell-based. As to the method:
as §1, §2, §3, §4, §5

Where [3] appears, read: 90% growth inhibitory concentration, Acinetobacter baumannii ATCC17961, Iso-Sensitest broth, OD 600 nm over 16 h.

On to `COc1ccc(-c2cnc3c(Nc4ccc(C(=O)NC5CCN(C)CC5)c(C)c4)nccn23)cc1` [Example 1, 4-((3-(4-methoxyphenyl)imidazo[1,2-a]pyrazin-8-yl)amino)-2-methyl-N-(1-methylpiperidin-4-yl)benzamide], for which, in assay [1], the 90% effect level (IC90) was put at 2200 nM.
On the same count and under the same terms, the value for `Cc1cc(Nc2nccn3c(-c4ccc(OC(F)F)cc4)cnc23)ccc1C(=O)NC1CN2CCC1CC2` (stereo not shown) [Example 2, 4-((3-(4-(difluoromethoxy)phenyl)imidazo[1,2-a]pyrazin-8-yl)amino)-2-methyl-N-(quinuclidin-3-yl)benzamide] was 3200 nM; that for `CCc1cc(Nc2nccn3c(-c4ccc(OC)c(F)c4F)cnc23)ccc1C(=O)N[C@@H]1CCNC1` [Example 3, (R)-4-((3-(2,3-difluoro-4-methoxyphenyl)imidazo[1,2-a]pyrazin-8-yl)amino)-2-ethyl-N-(pyrrolidin-3-yl)benzamide hydrochloride] was 260 nM; that for `COc1ccc(-c2cnc3c(Nc4ccc(C(=O)NC5COC(CN)OC5)c(C)c4)nccn23)cc1` (stereo not shown) [Example 7, N-(2-(aminomethyl)-1,3-dioxan-5-yl)-4-((3-(4-methoxyphenyl)imidazo [1,2-a]pyrazin-8-yl)amino)-2-methylbenzamide] was 540 nM.
`COc1ccc(-c2cnc3c(Nc4ccc(C(=O)N(C)C5CCN(C)CC5)c(C)c4)nccn23)cc1` [Example 15, 4-[[3-(4-methoxyphenyl)imidazo[1,2-a]pyrazin-8-yl]amino]-N,2-dimethyl-N-(1-methylpiperidin-4-yl)benzamide] gave an IC90 in assay [1] of 5300 nM.
Still for that read-out and setting: for `COc1ccc(-c2cnc3c(Nc4ccc(C(=O)N(C)C5CCN(C)CC5)cc4)nccn23)cc1` [Example 16, 4-[[3-(4-methoxyphenyl)imidazo[1,2-a]pyrazin-8-yl]amino]-N-methyl-N-(1-methylpiperidin-4-yl)benzamide] the value was 5900 nM; for `COc1ccc(-c2cnc3c(Nc4ccc(C(=O)N(C)[C@@H]5CNC[C@H]5O)c(C)c4)nccn23)cc1F` [Example 17, 4-[[3-(3-fluoro-4-methoxyphenyl)imidazo[1,2-a]pyrazin-8-yl]amino]-N-[(3R,4R)-4-hydroxypyrrolidin-3-yl]-N,2-dimethylbenzamide;hydrochloride], 2600 nM; for `COc1ccc(-c2cnc3c(Nc4ccc(C(=O)N(C)C5CCNCC5)c(Cl)c4)nccn23)cc1F` [Example 20, 2-chloro-4-[[3-(3-fluoro-4-methoxyphenyl)imidazo[1,2-a]pyrazin-8-yl]amino]-N-methyl-N-piperidin-4-ylbenzamide;hydrochloride], 820 nM.
The same measure, in the same setting: for `COc1ccc(-c2cnc3c(Nc4ccc(C(=O)N(C)C5CCNCC5)c(C)c4)nccn23)cc1F` [Example 21, 4-[[3-(3-fluoro-4-methoxyphenyl)imidazo[1,2-a]pyrazin-8-yl]amino]-N, 2-dimethyl-N-piperidin-4-ylbenzamide;hydrochloride] the value was 1100 nM; for `Cc1cc(Nc2nccn3c(-c4ccc(OC(F)F)c(F)c4)cnc23)ccc1C(=O)N(C)C1CCNCC1` [Example 22, 4-[[3-[4-(difluoromethoxy)-3-fluorophenyl]imidazo[1,2-a]pyrazin-8-yI]amino]-N,2-dimethyl-N-piperidin-4-ylbenzamide;hydrochloride], 1300 nM.
Same read-out and setting: for `Cc1cc(Nc2nccn3c(-c4ccc(OC(F)F)cc4)cnc23)ccc1C(=O)N[C@H]1[C@@H](O)[C@H](O)[C@@H](CO)O[C@@H]1O` [Example 23, 4-[[3-[4-(difluoromethoxy)phenyl]imidazo[1,2-a]pyrazin-8-yl]amino]-2-methyl-N-[(2S,3S,4R,5S,6R)-2,4,5-trihydroxy-6-(hydroxymethyl)oxan-3-yl]benzamide] the value was 8000 nM; for `COc1ccc(-c2cnc3c(Nc4ccc(C(=O)NC5CCN(C6CCS(=O)(=O)CC6)CC5)c(C)c4)nccn23)cc1F` [Example 24, N-[1-(1,1-dioxothian-4-yl)piperidin-4-yl]-4-[[3-(3-fluoro-4-methoxyphenyl)imidazo[1,2-a]pyrazin-8-yl]amino]-2-methylbenzamide], 600 nM; for `COc1ccc(-c2cnc3c(Nc4ccc(C(=O)Nc5ccc(C(=O)O)cc5)c(C)c4)nccn23)cc1F` [Example 25, 4-[[4-[[3-(3-fluoro-4-methoxyphenyl)imidazo[1,2-a]pyrazin-8-yl]amino]-2-methylbenzoyl]amino] benzoic acid], 1500 nM.
For the molecule `COc1ccc(-c2cnc3c(Nc4ccc(C(=O)N[C@H]5CCNC[C@H]5F)c(C)c4)nccn23)cc1F` [Example 26, 4-[[3-(3-fluoro-4-methoxyphenyl)imidazo[1,2-a]pyrazin-8-yl]amino]-N-[(3R,4S)-3-fluoropiperidin-4-yl]-2-methylbenzamide;2,2,2-trifluoroacetic acid], in assay [1], the IC90 came to 2700 nM.
`CCc1cc(Nc2nccn3c(-c4ccc(OC)c(F)c4F)cnc23)ccc1C(=O)NC1(CO)COC1` [Example 27, 4-[[3-(2,3-difluoro-4-methoxyphenyl)imidazo[1,2-a]pyrazin-8-yl]amino]-2-ethyl-N-[3-(hydroxymethyl)oxetan-3-yl]benzamide] gave an IC90 in assay [1] of 180 nM.
Regarding `CCc1cc(Nc2nccn3c(-c4ccc(OC)c(F)c4F)cnc23)ccc1C(=O)NC12CC(N)(C1)C2` [Example 61, N-(3-aminobicyclo[1.1.1]pentan-1-yl)-4-((3-(2,3-difluoro-4-methoxyphenyl)imidazo[1,2-a]pyrazin-8-yl)amino)-2-ethylbenzamide dihydrochloride], the IC90 in assay [2] (setting [3]) was determined as 259 nM.
The same measure, in the same setting: the value for `COc1ccc(-c2cnc3c(Nc4ccc(C(=O)N[C@H]5CC[C@H](NC(=O)[C@@H]6C[C@@H](O)CN6)CC5)c(C)c4)nccn23)c(F)c1F` [Example 62, (2S,4R)-N-((1r,4S)-4-(4-((3-(2,3-difluoro-4-methoxyphenyl)imidazo[1,2-a]pyrazin-8-yl)amino)-2-methylbenzamido)cyclohexyI)-4-hydroxypyrrolidine-2-carboxamide] was 268 nM.
On the same count and under the same terms, for `COc1ccc(-c2cnc3c(Nc4ccc(C(=O)N[C@@H]5CCN(C(=O)[C@@H]6C[C@@H](O)CN6)C5)c(C)c4)nccn23)c(F)c1F` [Example 63] the value was 55 nM.
With `COc1ccc(-c2cnc3c(Nc4ccc(C(=O)N[C@H]5CCN(C(=O)[C@@H]6C[C@@H](O)CN6)C5)c(C)c4)nccn23)c(F)c1F` [Example 64, 4-((3-(2,3-difluoro-4-methoxyphenyl)imidazo[1,2-a]pyrazin-8-yl)amino)-N-((S)-1-((2S,4R)-4-hydroxypyrrolidine-2-carbonyI)pyrrolidin-3-yl)-2-methylbenzamide], in assay [2] (setting [3]), the IC90 was 81 nM.
Same read-out and setting: the value for `COc1ccc(-c2cnc3c(Nc4ccc(C(=O)NC5CN(C(=O)[C@@H]6C[C@@H](O)CN6)C5)c(C)c4)nccn23)c(F)c1F` [Example 65, 4-((3-(2,3-difluoro-4-methoxyphenyl)imidazo[1,2-a]pyrazin-8-yl)amino)-N-(1-((2S,4R)-4-hydroxypyrrolidine-2-carbonyl)azetidin-3-yl)-2-methylbenzamide] was 47 nM; that for `COc1ccc(-c2cnc3c(Nc4ccc(C(=O)N[C@H]5C[C@@H](NC(=O)[C@@H]6C[C@@H](O)CN6)C5)c(C)c4)nccn23)c(F)c1F` [Example 66, (2S,4R)-N-((1s,3R)-3-(4-((3-(2,3-difluoro-4-methoxyphenyl)imidazo[1,2-a]pyrazin-8-yl)amino)-2-methylbenzamido)cyclobutyl)-4-hydroxypyrrolidine-2-carboxamide] was 40 nM.
Same read-out and setting: for `COc1ccc(-c2cnc3c(Nc4ccc(C(=O)N[C@H]5C[C@H](NC(=O)[C@@H]6C[C@@H](O)CN6)C5)c(C)c4)nccn23)c(F)c1F` [Example 67, (2S,4R)-N-((1r,3 S)-3-(4-((3-(2,3-difluoro-4-methoxyphenyl)imidazo[1,2-a]pyrazin-8-yl)amino)-2-methylbenzamido)cyclobutyl)-4-hydroxypyrrolidine-2-carboxamide] the value was 101 nM; for `CCc1cc(Nc2nccn3c(-c4ccc(OC)c(F)c4F)cnc23)ccc1C(=O)NC12CC(NC(=O)[C@@H]3C[C@@H](O)CN3)(C1)C2` [Example 70, (2S,4R)-N-(3-(4-((3-(2,3-difluoro-4-methoxyphenyl)imidazo[1,2-a]pyrazin-8-yl)amino)-2-ethylbenzamido)bicyclo[1.1.1]pentan-1-yl)-4-hydroxypyrrolidine-2-carboxamide dihydrochloride], 197 nM.
Turning to `CCc1cc(Nc2nccn3c(-c4ccc(OC)c(F)c4F)cnc23)ccc1C(=O)N[C@@H]1CCC[C@@H]1N` [Example 71, N-((1R,2S)-2-aminocyclopentyl)-4-((3-(2,3-difluoro-4-methoxyphenyl)imidazo[1,2-a]pyrazin-8-yl)amino)-2-ethylbenzamide dihydrochloride], the 90% effect concentration (IC90) in assay [2] (setting [3]) is 712 nM.
`CCc1cc(Nc2nccn3c(-c4ccc(OC)c(F)c4F)cnc23)ccc1C(=O)N[C@H]1[C@@H]2CNC[C@@H]21` [Example 72, rac-N-((1R,5 S,6s)-3-azabicyclo[3.1,0]hexan-6-yI)-4-((3-(2,3-difluoro-4-methoxyphenyl)imidazo[1,2-a]pyrazin-8-yl)amino)-2-ethylbenzamide hydrochloride]: in assay [2] (Acinetobacter baumannii, ATCC17961, 16 h), the IC90 was found to be 295 nM.

Usually IC90 stands for the point of the concentration-response curve where the effect stands at 90%.
